# Assay results as given in US20250304990A1, “HERBICIDE RESISTANCE” (SYNGENTA CROP PROTECTION AG, priority 2021, published 2025).
# Legend:
# Assay in all cases: Dose response test, growth in 96-well plates
# Assay type in all cases: cell-based, Chlorella fusca
# Cf WT = conditions: Cf WT; 2-fold dilutions from 100 ppm
# Procedure: (§1) Dose response tests with B5U were set-up in 96-well, flat bottomed plates. 200 μl medium was used in each well. 2 μl of 6 day old culture was added to each well, then 2 μl of DMSO or dilution of test compound were added to respective wells. 2-fold dilutions starting at 100 ppm were used per well. Plates were incubated at 25° C., 50 μmol/m^2/s, 16 hour photoperiod.
# (§2) This was assessed by a visual inspection of growth in the 96-well plate. The inhibitor concentration at which no growth is observed is then defined as the LD.
# (§3) Starting dose was 100 ppm and decreasing with 2-fold dilutions with C. fusca wt, the five HST mutants and the 10 compounds to which the wt is sensitive. Plates were incubated at 25° C., 50 μmol/m2/s, 16 hour photoperiod.
# Cf-496-15 = Cf-496-15 (T277N); 2-fold dilutions from 100 ppm
# Procedure: as §1, §2, §3
# Cf-496-19 = Cf-496-19 (F275I); 2-fold dilutions from 100 ppm
# Procedure: as §1, §2, §3
# Cf-496-28 = Cf-496-28 (V276A); 2-fold dilutions from 100 ppm
# Procedure: as §1, §2, §3
# Cf-496-8 = Cf-496-8 (M278L_F279I); 2-fold dilutions from 100 ppm
# Procedure: as §1, §2, §3
# Cf-496-94 = Cf-496-94 (F275L); 2-fold dilutions from 100 ppm
# Procedure: as §1, §2, §3
structure (smiles),measurement,setting,value
"Cc1nn(C)c(=O)c(-c2c(F)ccc(Cl)c2CCc2ccc(F)cc2)c1OC(=O)C(C)C [B5p, [5-[3-chloro-6-fluoro-2-[2-(4-fluorophenyl)ethyl]phenyl]-1,3-dimethyl-6-oxo-pyridazin-4-yl]2-methylpropanoate]",dose response to HST inhibiting compounds,Cf WT,25 ppm
same,dose response to HST inhibiting compounds,Cf-496-15,>100 ppm
same,dose response to HST inhibiting compounds,Cf-496-19,>100 ppm
same,dose response to HST inhibiting compounds,Cf-496-28,>100 ppm
same,dose response to HST inhibiting compounds,Cf-496-8,>100 ppm
same,dose response to HST inhibiting compounds,Cf-496-94,>100 ppm
